The experiment has as its target GST-Bc1-2 (Homo sapiens, UniProt P10415). The experiment can be described thus: Time Resolved-Fluorescence Resonance Energy Transfer (TR-FRET) Bcl-2 binding assay with F-Bak peptide probe. To be noted: GST-Bcl-2 1 nM, F-Bak probe 100 nM, Tb-anti-GST 1 nM; '<' = below limit of detection; read-out: TR-FRET Bcl-2 Binding Ki. On the technique in general: TR-FRET usually uses a lanthanide donor and a delayed reading to cut background.

Usually Ki stands for a dissociation constant, usually derived from enzyme kinetics or from competition with a known ligand.

GST-Bc1-2, sequence (P10415 whole entry): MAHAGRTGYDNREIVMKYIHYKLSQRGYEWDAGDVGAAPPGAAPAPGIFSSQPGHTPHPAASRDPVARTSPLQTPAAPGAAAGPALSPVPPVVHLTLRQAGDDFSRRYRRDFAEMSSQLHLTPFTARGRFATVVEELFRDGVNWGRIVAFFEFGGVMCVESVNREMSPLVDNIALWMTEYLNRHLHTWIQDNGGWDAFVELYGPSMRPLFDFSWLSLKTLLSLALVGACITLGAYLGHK

With `COCCOCCN1CC[C@@H](Nc2ccc(S(=O)(=O)NC(=O)c3ccc(N4CCN(CC5=C(c6ccc(Cl)cc6)CC(C)(C)CC5)CC4)cc3Oc3cnc4[nH]ccc4c3)cc2[N+](=O)[O-])C1` [Example 254, 4-(4-{[2-(4-chlorophenyl)-4,4-dimethylcyclohex-1-en-1-yl]methyl}piperazin-1-yl)-N-{[4-({(3R)-1-[2-(2-methoxyethoxy)ethyl]pyrrolidin-3-yl}amino)-3-nitrophenyl]sulfonyl}-2-(1H-pyrrolo[2,3-b]pyridin-5-yloxy)benzamide], the Ki was under 0.01 nM.
For `CN(C)CC(=O)N1CC[C@@H](Nc2ccc(S(=O)(=O)NC(=O)c3ccc(N4CCN(CC5=C(c6ccc(Cl)cc6)CC(C)(C)CC5)CC4)cc3Oc3cnc4[nH]ccc4c3)cc2[N+](=O)[O-])C1` [Example 255, 4-(4-{[2-(4-chlorophenyl)-4,4-dimethylcyclohex-1-en-1-yl]methyl}piperazin-1-yl)-N-[(4-{[(3R)-1-(N,N-dimethylglycyl)pyrrolidin-3-yl]amino}-3-nitrophenyl)sulfonyl]-2-(1H-pyrrolo[2,3-b]pyridin-5-yloxy)benzamide] the value was under 0.01 nM; for `CC1(C)CCC(CN2CCN(c3ccc(C(=O)NS(=O)(=O)c4ccc(NC5CN(C6COC6)C5)c([N+](=O)[O-])c4)c(Oc4cnc5[nH]ccc5c4)c3)CC2)=C(c2ccc(Cl)cc2)C1` [Example 256, 4-(4-{[2-(4-chlorophenyl)-4,4-dimethylcyclohex-1-en-1-yl]methyl}piperazin-1-yl)-N-[(3-nitro-4-{[1-(oxetan-3-yl)azetidin-3-yl]amino}phenyl)sulfonyl]-2-(1H-pyrrolo[2,3-b]pyridin-5-yloxy)benzamide], under 0.01 nM.
For `CC1(C)CCC(CN2CCN(c3ccc(C(=O)NS(=O)(=O)c4cnc(OCC5(F)CCN(CC#N)CC5)c(Cl)c4)c(Oc4cnc5[nH]ccc5c4)c3)CC2)=C(c2ccc(Cl)cc2)C1` [Example 257, N-[(5-chloro-6-{[1-(cyanomethyl)-4-fluoropiperidin-4-yl]methoxy}pyridin-3-yl)sulfonyl]-4-(4-{[2-(4-chlorophenyl)-4,4-dimethylcyclohex-1-en-1-yl]methyl}piperazin-1-yl)-2-(1H-pyrrolo[2,3-b]pyridin-5-yloxy)benzamide] the value was 0.052 nM.
For `CN(C)CC(=O)N1CCO[C@H](CNc2ccc(S(=O)(=O)NC(=O)c3ccc(N4CCN(CC5=C(c6ccc(Cl)cc6)CC(C)(C)CC5)CC4)cc3Oc3cnc4[nH]ccc4c3)cc2[N+](=O)[O-])C1` [Example 258, 4-(4-{[2-(4-chlorophenyl)-4,4-dimethylcyclohex-1-en-1-yl]methyl}piperazin-1-yl)-N-{[4-({[(2R)-4-(N,N-dimethylglycyl)morpholin-2-yl]methyl}amino)-3-nitrophenyl]sulfonyl}-2-(1H-pyrrolo[2,3-b]pyridin-5-yloxy)benzamide] the value was under 0.01 nM; for `CN(C)CC(=O)N1CCO[C@@H](CNc2ccc(S(=O)(=O)NC(=O)c3ccc(N4CCN(CC5=C(c6ccc(Cl)cc6)CC(C)(C)CC5)CC4)cc3Oc3cnc4[nH]ccc4c3)cc2[N+](=O)[O-])C1` [Example 259, 4-(4-{[2-(4-chlorophenyl)-4,4-dimethylcyclohex-1-en-1-yl]methyl}piperazin-1-yl)-N-{[4-({[(2S)-4-(N,N-dimethylglycyl)morpholin-2-yl]methyl}amino)-3-nitrophenyl]sulfonyl}-2-(1H-pyrrolo[2,3-b]pyridin-5-yloxy)benzamide], under 0.01 nM; for `CN(C)CC(=O)N1CCC(COc2ncc(S(=O)(=O)NC(=O)c3ccc(N4CCN(CC5=C(c6ccc(Cl)cc6)CC(C)(C)CC5)CC4)cc3Oc3cnc4[nH]ccc4c3)cc2Cl)CC1` [Example 260, N-[(5-chloro-6-{[1-(N,N-dimethylglycyl)piperidin-4-yl]methoxy}pyridin-3-yl)sulfonyl]-4-(4-{[2-(4-chlorophenyl)-4,4-dimethylcyclohex-1-en-1-yl]methyl}piperazin-1-yl)-2-(1H-pyrrolo[2,3-b]pyridin-5-yloxy)benzamide], 0.016 nM.
For `CC1(C)CCC(CN2CCN(c3ccc(C(=O)NS(=O)(=O)c4cnc(O[C@@H]5CCN(CC(F)F)C5)c(Cl)c4)c(Oc4cnc5[nH]ccc5c4)c3)CC2)=C(c2ccc(Cl)cc2)C1` [Example 261, N-[(5-chloro-6-{[(3R)-1-(2,2-difluoroethyl)pyrrolidin-3-yl]oxy}pyridin-3-yl)sulfonyl]-4-(4-{[2-(4-chlorophenyl)-4,4-dimethylcyclohex-1-en-1-yl]methyl}piperazin-1-yl)-2-(1H-pyrrolo[2,3-b]pyridin-5-yloxy)benzamide], the Ki worked out at 0.134 nM.
With `CC1(C)CCC(CN2CCN(c3ccc(C(=O)NS(=O)(=O)c4ccc(N[C@@H]5CCN(CC#N)C5)c([N+](=O)[O-])c4)c(Oc4cnc5[nH]ccc5c4)c3)CC2)=C(c2ccc(Cl)cc2)C1` [Example 262, 4-(4-{[2-(4-chlorophenyl)-4,4-dimethylcyclohex-1-en-1-yl]methyl}piperazin-1-yl)-N-[(4-{[(3R)-1-(cyanomethyl)pyrrolidin-3-yl]amino}-3-nitrophenyl)sulfonyl]-2-(1H-pyrrolo[2,3-b]pyridin-5-yloxy)benzamide] the figure was under 0.01 nM; with `COC1(Cc2ccccc2-c2ccc(Cl)cc2)CCN(c2ccc(C(=O)NS(=O)(=O)c3cnc(OCC4(F)CCOCC4)c(Cl)c3)c(Oc3cnc4[nH]ccc4c3)c2)CC1` [Example 263, 4-{4-[(4′-chlorobiphenyl-2-yl)methyl]-4-methoxypiperidin-1-yl}-N-({5-chloro-6-[(4-fluorotetrahydro-2H-pyran-4-yl)methoxy]pyridin-3-yl}sulfonyl)-2-(1H-pyrrolo[2,3-b]pyridin-5-yloxy)benzamide], 0.156 nM; with `COC1(Cc2ccccc2-c2ccc(Cl)cc2)CCN(c2ccc(C(=O)NS(=O)(=O)c3ccc(NCC4CCOCC4)c([N+](=O)[O-])c3)c(Oc3cnc4[nH]ccc4c3)c2)CC1` [Example 264, 4-{4-[(4′-chlorobiphenyl-2-yl)methyl]-4-methoxypiperidin-1-yl}-N-({3-nitro-4-[(tetrahydro-2H-pyran-4-ylmethyl)amino]phenyl}sulfonyl)-2-(1H-pyrrolo[2,3-b]pyridin-5-yloxy)benzamide], 0.036 nM.
With `O=C(NS(=O)(=O)c1ccc(NCC2CCOCC2)c([N+](=O)[O-])c1)c1ccc(N2CCN(CC3=C(c4ccc(Cl)cc4)CCC4(CCN(C(CF)CF)CC4)C3)CC2)cc1Oc1cnc2[nH]ccc2c1` [Example 265, 4-(4-{[9-(4-chlorophenyl)-3-(1,3-difluoropropan-2-yl)-3-azaspiro[5.5]undec-8-en-8-yl]methyl}piperazin-1-yl)-N-({3-nitro-4-[(tetrahydro-2H-pyran-4-ylmethyl)amino]phenyl}sulfonyl)-2-(1H-pyrrolo[2,3-b]pyridin-5-yloxy)benzamide] the figure was under 0.01 nM.
For `CC(C)N1CCC2(CCC(c3ccc(Cl)cc3)=C(CN3CCN(c4ccc(C(=O)NS(=O)(=O)c5ccc(NCC6CCOCC6)c([N+](=O)[O-])c5)c(Oc5cnc6[nH]ccc6c5)c4)CC3)C2)CC1` [Example 266, 4-(4-{[9-(4-chlorophenyl)-3-isopropyl-3-azaspiro[5.5]undec-8-en-8-yl]methyl}piperazin-1-yl)-N-({3-nitro-4-[(tetrahydro-2H-pyran-4-ylmethyl)amino]phenyl}sulfonyl)-2-(1H-pyrrolo[2,3-b]pyridin-5-yloxy)benzamide] the value was under 0.01 nM.
On to `CC(C)N1CCC2(CCC(c3ccc(Cl)cc3)=C(CN3CCN(c4ccc(C(=O)NS(=O)(=O)c5cnc(OCC6CCOCC6)c(Cl)c5)c(Oc5cnc6[nH]ccc6c5)c4)CC3)C2)CC1` [Example 268, 4-(4-{[9-(4-chlorophenyl)-3-isopropyl-3-azaspiro[5.5]undec-8-en-8-yl]methyl}piperazin-1-yl)-N-{[5-chloro-6-(tetrahydro-2H-pyran-4-ylmethoxy)pyridin-3-yl]sulfonyl}-2-(1H-pyrrolo[2,3-b]pyridin-5-yloxy)benzamide], for which the Ki is under 0.01 nM.
Regarding `CN1CCC(F)(COc2ncc(S(=O)(=O)NC(=O)c3ccc(N4CCN(CC5=C(c6ccc(Cl)cc6)CC(C)(C)CC5)CC4)cc3Oc3cnc4[nH]ccc4c3)cc2Cl)CC1` [Example 269, N-({5-chloro-6-[(4-fluoro-1-methylpiperidin-4-yl)methoxy]pyridin-3-yl}sulfonyl)-4-(4-{[2-(4-chlorophenyl)-4,4-dimethylcyclohex-1-en-1-yl]methyl}piperazin-1-yl)-2-(1H-pyrrolo[2,3-b]pyridin-5-yloxy)benzamide], the Ki worked out at 0.016 nM.
With `CN(C)CC(=O)N1CCC(F)(COc2ncc(S(=O)(=O)NC(=O)c3ccc(N4CCN(CC5=C(c6ccc(Cl)cc6)CC(C)(C)CC5)CC4)cc3Oc3cnc4[nH]ccc4c3)cc2Cl)CC1` [Example 270, N-[(5-chloro-6-{[1-(N,N-dimethylglycyl)-4-fluoropiperidin-4-yl]methoxy}pyridin-3-yl)sulfonyl]-4-(4-{[2-(4-chlorophenyl)-4,4-dimethylcyclohex-1-en-1-yl]methyl}piperazin-1-yl)-2-(1H-pyrrolo[2,3-b]pyridin-5-yloxy)benzamide] the figure was under 0.01 nM.
For `O=C(NS(=O)(=O)c1ccc(NCC2CCOCC2)c([N+](=O)[O-])c1)c1ccc(N2CCC(F)(Cc3ccccc3-c3ccc(Cl)cc3)CC2)cc1Oc1cnc2[nH]ccc2c1` [Example 271, 4-{4-[(4′-chlorobiphenyl-2-yl)methyl]-4-fluoropiperidin-1-yl}-N-({3-nitro-4-[(tetrahydro-2H-pyran-4-ylmethyl)amino]phenyl}sulfonyl)-2-(1H-pyrrolo[2,3-b]pyridin-5-yloxy)benzamide] the value was 0.039 nM.
With `O=C(NS(=O)(=O)c1cnc(OCC2(F)CCOCC2)c(Cl)c1)c1ccc(N2CCC(F)(Cc3ccccc3-c3ccc(Cl)cc3)CC2)cc1Oc1cnc2[nH]ccc2c1` [Example 272, 4-{4-[(4′-chlorobiphenyl-2-yl)methyl]-4-fluoropiperidin-1-yl}-N-({5-chloro-6-[(4-fluorotetrahydro-2H-pyran-4-yl)methoxy]pyridin-3-yl}sulfonyl)-2-(1H-pyrrolo[2,3-b]pyridin-5-yloxy)benzamide] the figure was 0.031 nM.
